The values that follow come from patent US9873670B2, “Arylquinoline and analog compounds and use thereof to treat cancer” (UNIVERSITY OF KENTUCKY RESEARCH FOUNDATION, priority 2013, dated 2018).

For test [1], the system named is cancer cells co-cultured with Par-4+/+ MEFs. The test can be described thus: Apoptosis in co-cultures of Par-4+/+ MEFs and cancer cells. It is filed as cell-based. On the procedure: Top: Cancer cells were co-cultured with MEFs and treated with Arylquin 1 (500 nM) or vehicle and tested for apoptosis. Bottom: Serum from mice injected with Arylquin 1 (Aq) or corn oil vehicle (V), was examined by Western blot analysis (not shown). Aliquots of serum from these mice were either directly added to the growth medium of cells in culture, or incubated with the indicated antibody, and then added to the growth medium of PC-3 MM2 cells to test for apoptosis.
See Hebbar, N., Wang, C. & Rangnekar, V. M. J Cell Phys 227, 3715-3721 (2012) and Shrestha-Bhattarai, T., Hebbar, N. & Rangnekar, V. M. Cancer Cell 24, 3-5 (2013). A total of three independent experiments were performed; and approximately 500 cells were scored in each experiment for apoptosis under a fluorescent microscope. Cell surface GRP78 expression on the cancer cell surface was quantified by FACS analysis in the Flow Cytometry Shared Resource Facility, Markey Cancer Center as previously described. See Hebbar, N., Wang, C. & Rangnekar, V. M. J Cell Phys 227, 3715-3721 (2012).

The test system of another test is Par-4 in serum. The test can be described thus: Circulating Par-4 in serum of injected mice. It is filed as in vivo, C57BL/6 mice. The following applies: 10 mg/kg intraperitoneal, 24 h. On the procedure:
Animal experiments: C57BL/6 mice were injected via the intraperitoneal route with Arylquin 1 (10 mg/kg body weight) or corn oil vehicle, and whole-blood samples were collected 24 h later. Serum was separated from the blood samples, heated at 56° C. to inactivate complement. Aliquots of the mouse serum samples were added to the growth medium (final 20% mouse serum) of normal and cancer cells in culture and tested for induction of ex vivo apoptosis in cancer cells. All animal procedures were performed with University of Kentucky IACUC approval.

`CN(C)c1ccc2cc(-c3ccccc3F)c(N)nc2c1` [Arylquin 1, 3-(2-fluorophenyl)-N^7,N^7-dimethylquinoline-2,7-diamine]: in test [1] (500 nM, Par-4+/+ MEFs, relative to vehicle), the “apoptosis of cancer cells in co-culture” value was “resulted in apoptosis of the cancer cells”. In test [1] (p53-wild type, p53-deficient and oncogenic K-ras lung cancer cells), the “paracrine apoptosis of lung cancer cells by Par-4 secreted from normal cells” value is “adequate to induce paracrine apoptosis”. Further, in the test on Par-4 in serum, the “Par-4 secretion in serum relative to vehicle control” value is given as 5 fold.
